Drawing on BindingDB's records for PubMed 9864265 (Second Tokushima Institute of New Drug Research, 1998), this text covers Ki for two molecules.

Some results are limits rather than exact numbers.

For assay [1], the target named is Vasopressin V2 receptor (Rattus norvegicus, UniProt Q00788).
Assay [2] concerns the target T1, Vasopressin V1b receptor (Homo sapiens, UniProt P47901).
T1 sequence (P47901 whole entry): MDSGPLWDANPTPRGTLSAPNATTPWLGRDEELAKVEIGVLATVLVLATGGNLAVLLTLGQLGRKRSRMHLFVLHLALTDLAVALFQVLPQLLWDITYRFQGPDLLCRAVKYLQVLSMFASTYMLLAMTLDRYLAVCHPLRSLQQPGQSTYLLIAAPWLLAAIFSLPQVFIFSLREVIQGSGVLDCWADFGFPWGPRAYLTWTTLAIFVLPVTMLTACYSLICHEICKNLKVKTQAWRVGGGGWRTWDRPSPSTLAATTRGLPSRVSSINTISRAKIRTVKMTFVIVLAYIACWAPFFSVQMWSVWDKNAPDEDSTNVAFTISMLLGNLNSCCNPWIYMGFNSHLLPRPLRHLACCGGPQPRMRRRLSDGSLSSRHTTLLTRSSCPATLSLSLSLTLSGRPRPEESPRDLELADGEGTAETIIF

The target of assay [3] is Vasopressin V1a receptor (Rattus norvegicus, UniProt P30560).
Chain of Vasopressin V1a receptor (P30560 whole entry): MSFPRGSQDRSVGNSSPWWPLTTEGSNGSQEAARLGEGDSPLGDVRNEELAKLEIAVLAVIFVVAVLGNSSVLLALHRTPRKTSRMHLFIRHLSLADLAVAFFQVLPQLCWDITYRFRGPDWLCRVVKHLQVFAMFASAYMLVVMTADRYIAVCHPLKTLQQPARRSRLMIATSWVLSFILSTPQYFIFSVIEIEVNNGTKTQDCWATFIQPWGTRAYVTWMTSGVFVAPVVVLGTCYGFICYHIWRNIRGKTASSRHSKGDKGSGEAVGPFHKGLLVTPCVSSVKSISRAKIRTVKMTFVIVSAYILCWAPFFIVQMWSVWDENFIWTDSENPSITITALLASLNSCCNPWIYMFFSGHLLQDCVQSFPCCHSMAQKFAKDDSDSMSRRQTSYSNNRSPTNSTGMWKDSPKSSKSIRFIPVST

Chain of Vasopressin V2 receptor (Q00788 whole entry): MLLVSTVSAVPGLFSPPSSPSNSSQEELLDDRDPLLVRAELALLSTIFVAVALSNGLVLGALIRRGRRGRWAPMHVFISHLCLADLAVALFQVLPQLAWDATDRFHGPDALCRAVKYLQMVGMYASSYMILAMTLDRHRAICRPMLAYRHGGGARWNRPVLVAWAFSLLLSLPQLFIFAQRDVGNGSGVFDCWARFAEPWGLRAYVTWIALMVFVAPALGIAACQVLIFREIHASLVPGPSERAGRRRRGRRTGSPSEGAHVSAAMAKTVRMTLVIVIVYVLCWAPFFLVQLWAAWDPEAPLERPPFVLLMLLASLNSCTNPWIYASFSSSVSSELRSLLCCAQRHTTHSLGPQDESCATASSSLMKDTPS

The term Ki denotes a dissociation constant, usually derived from enzyme kinetics or from competition with a known ligand. A higher Ki goes with weaker binding. Consider `Cc1ccccc1C(=O)Nc1ccc(C(=O)N2CCCC(O)c3cc(Cl)ccc32)c(C)c1` (stereo not given), for which the Ki in assay [1] is 1.33 nM; in assay [2], more than 10000 nM; in assay [3], 325 nM.
For `Cc1ccccc1C(=O)Nc1ccc(C(=O)N2CCCC(N(C)C)c3ccccc32)cc1` (stereo not given), the figures for the Ki in assay [2] and in assay [3] were more than 10000 nM and 524 nM, respectively.
